Assay results reported in patent US20130274228A1, “CONCOMITANT DRUG FOR IMPROVING COGNITIVE FUNCTION” (Nishizaki Bioinformation Research Institute, priority 2010, published 2013).

Tested on: normal rats
Assay: Water maze test (acquisition latency)
Assay type: in vivo, rat
Settings: oral, every day from 7 days before and during the test, male Wister rats
Procedure: Male Wister rats (7-weeks-old) were used for a water maze test. A circular plastic water tank (diameter 180 cm, depth 45 cm) was used. The inside of the water tank was completely painted in black, and dark water with India ink was filled up to 25 cm from the bottom (22° C.). A platform (diameter 11 cm) painted in black was placed in water such that it was 1 cm below the water surface. The water tank was placed in a test room, and several marks seen by the rat from the water tank were put thereon. During the test, the position of the marks was not changed. A platform was placed a predetermined position from the equal distance from the center and the end of the water tank, namely, center of one quadrant. At one of the randomly selected 5 points, the rat was released facing the wall of the water tank, and the time necessary for evacuating on the platform (acquisition latency) was measured. When smoothly evacuated, the rat was left on the platform for 10 seconds. From 7 days before the water maze test and during the test, DLPC (5 mg/kg) alone, DLPC (10 mg/kg) alone, POPC (5 mg/kg) alone, POPC (10 mg/kg) alone, DLPC (5 mg/kg) and POPC (5 mg/kg), or PEG alone, each dissolved in polyethylene glycol (PEG), was orally administered every day. The water maze test m was performed twice a day, and the second test was started at 2 min after the first test. The test was continuously performed for 8 days, and the mean (±SEM) of acquisition latency of continuous 2 days until the rat reached the platform was calculated.
PEG, DLPC (5 mg/kg), DLPC (10 mg/kg), POPC (5 mg/kg), POPC (10 mg/kg) or DLPC (5 mg/kg) and POPC (5 mg/kg) was orally administered to rats every day during the water maze test from 7 days before the test.

| Structure (SMILES) | acquisition latency of the rat (single administration 5 mg/kg) | acquisition latency of the rat (single administration 10 mg/kg) |
| --- | --- | --- |
| CCCCC/C=C\C/C=C\CCCCCCCC(=O)OC[C@H](COP(=O)([O-])OCC[N+](C)(C)C)OC(=O)CCCCCCC/C=C\C/C=C\CCCCC [DLPC, 1,2-dilinoleoyl-sn-glycero-3-phosphocholine] | did not show a remarkable effect | did not show a remarkable effect |
| CCCCCCCC/C=C\CCCCCCCC(=O)O[C@H](COC(=O)CCCCCCCCCCCCCCC)COP(=O)([O-])OCC[N+](C)(C)C [POPC, 1-palmitoyl-2-oleoyl-sn-glycero-3-phosphocholine] | did not show a remarkable effect | did not show a remarkable effect |
